Measured values published in patent US11879137B2, “Treatment of type 1 diabetes and autoimmune diseases or disorders” (THE CHILDREN'S MEDICAL CENTER CORPORATION, priority 2017, dated 2024).

Test system: CD34+ cells
Experiment: qRT-PCR of PD-L1, CXCR4 and IDO-1 in prostaglandin-modulated CD34+ cells
Type: cell-based, human
Settings: for PD-L1 mRNA expression by RT-PCR: CD34+ cells upon modulation
Experimental: qRT-PCR. RNA was extracted from CD34+ cells using Direct-Zol™ RNA Kits (Zymo, Irvine, CA, USA) and Trizol Reagent (Invitrogen Carlsbad, CA), RNA quality was assessed by Multiskan™ GO Microplate spectrophotometer and the ratios of absorbance at 260 nm and 280 nm were assessed for all the samples. Only samples with RNA ratios within 1.9 were included in the present study. cDNA synthesis was made from purified total RNA by reverse transcription using High capacity cDNA Reverse Transcription RETROscript® Kit (Thermo Fisher Scientific, Waltham, MA, USA) followed by a pre-amplification using Taqman PreAmp Kit (Applied Biosystems) according to the manufacturer's instructions. qRT-PCR analysis was performed using TaqMan assays (Life Technologies, Grand Island, NY) containing PCR primers and TaqMan probes according to the manufacturer's instructions. Normalized expression values were determined using the ΔCt method. Quantitative reverse transcriptase polymerase chain reaction (qRT-PCR) data were normalized for the expression of GAPDH. qRT-PCR reactions were performed in triplicate in a 96-well format using an Applied Biosystems 7900HT fast real-time PCR instrument. Relative expression was calculated using the comparative threshold cycle method as previously described (23, 24). For two-group comparisons, a Student's t test was employed. Reported below are the main characteristics of the primers used: […]
Prostaglandin library screening. PGE2 has been described as a small molecule known to enhance the homing and engraftment of HSPCs. It was therefore sought to screen all known types of prostaglandins using the Prostaglandin Screening Library II, which contains 64 small molecules. Each small molecule contained in the library was first screened for its capacity to upregulate PD-L1 in human CD34+ cells isolated from T1D patients (FIG. 17A-17B). CD34+ cells isolated from T1D patients were cultured in StemSpan SFEMII and pulsed with each PG (prostaglandin) small molecule contained in the aforementioned library at a concentration of 10 μM at 24 and 48h. Using FACS analysis, the MFI (mean fluorescence intensity) of PD-L1 expression was calculated following treatment with each small molecule used to modulate CD34+ cells as compared to untreated/unmodulated CD34+ cells (FIG. 17B). A heat map was generated depicting the degree to which each PG small molecule affected PD-L1 expression on CD34+ cells (FIG. 17B), thus allowing for the evaluation of PG candidates. Based on its ability to modulate PD-L1 expression, PGE2 was selected as a candidate for further study; in addition, PGE2 has been described in the literature and has been tested in clinical trials as a potential therapy for enhancing HSPC engraftment following cord blood transplantation (21). Isolated CD34+ cells from healthy control patients (CTRL) and from T1D patients were cultured in StemSpan SFEMII and pulsed with 10 μM of PGE2 at 24 hours and 48 hours. […] It was therefore sought to perform a migration assay in order to assess the homing properties of PGE2-treated CD34+ cells (FIG. 17F).

Compound	PD-L1 mRNA expression by RT-PCR	IDO-1 expression (mRNA) (post-pharmacologic modulation)	increase of CXCR4 gene expression by RT-PCR (vs untreated CD34+ cells)
CCCCC(C)(C)[C@H](O)/C=C/[C@H]1[C@H](O)CC(=O)[C@@H]1C/C=C\CCCC(=O)O [16,16-dimethyl PGE2]	marked upregulation		
CCCCC[C@H](O)/C=C/[C@H]1[C@H](O)CC(=O)[C@@H]1C/C=C\CCCC(=O)O [PGE2, prostaglandin E2]	slight increase	remained unchanged	2 fold
